Consider seven molecules from US20140301961A1, “COMPOUNDS WITH ANTI-AGING ACTIVITIES” (priority 2011, published 2014).

The subject of data set [1] is connective tissue growth factor (CTGF). Description: Affymetrix gene array on skin explants, CTGF. In kind it is cell-based, human. Conditions: topical, 24 hours. The source says: (§1) Subcutaneous fat from full thickness skin, obtained from surgical waste material from breast reduction procedures, was removed with a scalpel. Three healthy Caucasian female donors were used for this study. The female donors differed from those of the skin-treatment study outlined previously 8 mm punch biopsies were taken from the skin (and these biopsies are now referred to as skin explants). Skin explants were put on Milipore cell culture inserts (12 mm diameter). Inserts containing skin explants were put in 6-well plates (one insert/well) and 1 mL of supplemented keratinocyte medium (ex Cascade Biologics) was added to each well. A tretinoin-containing cream (Aberela® ex. Janssen): 0.05% tretinoin in the cream, was applied topically to each explant (5 μL/cm^2) using a positive displacement pipette. A placebo cream without tretinoin was used as a control. The skin explants were incubated with tretinoin for 24 hours at 37° C. in 5% CO2-humidified air.
(§2) RNA concentration was measured with ND-1000 spectrophotometer (ex. NanoDrop Technologies) and RNA quality was evaluated using the Agilent 2100 bioanalyzer system (ex. Agilent Technologies). 250 nanograms of total RNA from each skin or skin explant sample was used to prepare biotinylated fragmented cRNA according to the GeneChip® 3′IVT Express Kit Manual (PN702646 Rev 1, ex. Affymetrix Inc.). Affymetrix GeneChip® expression arrays (Human Genome U133 Plus 2.0) were hybridized for 16 hours in a 45° C. incubator, rotated at 60 rpm. According to the GeneChip Expression Wash, Stain and Scan Manual (PN 702731 Rev 2, ex. Affymetrix Inc.) the arrays were washed and stained using the Fluidics Station 450 and scanned using the GeneChip® Scanner 3000 7G.
(§3) Analysis of the gene expression data was carried out in the statistical computing language R (http://www.r-project.org) using packages available from the Bioconductor project (www.bioconductor.org). The raw data was normalized using the robust multi-array average (RMA) method. In order to search for differentially expressed genes between the X samples and the Y samples group an empirical Bayes moderated t-test was then applied using the ‘limma’ package.
Skin explants were obtained as detailed in Example 3.1. Compounds naringenin and N-acetyl aspartic acid were topically applied on skin explants for 24 hours and investigated with Affymetrix gene array.

Data set [2] deals with arachidonate 5-lipoxygenase (ALOX5). Briefly: Affymetrix gene array on skin explants, ALOX5. Type of data set: cell-based, human. Conditions: topical, 24 hours.
Description: as §1, §2, §3
(§4) Skin explants were obtained as detailed in Example 3.1.

The test system of data set [3] is steroid 5 alpha-reductase 3 (SRD5A3). Description: Affymetrix gene array on skin explants, SRD5A3. In kind it is cell-based, human. The settings on record: topical, 24 hours.
Description: as §1, §2, §3, §4

For a further data set, the system named is Kallikrein 8. Description: Kallikrein 8 ELISA in human normal keratinocytes. Conditions: 4 days stimulation (FIG. 14). Type of data set: cell-based. On the procedure:
(§5) Keratinocytes were cultured in commercially available keratinocyte medium M154 (Cascade Biologics/Invitrogen) # M154500 with a final calcium […]. Supplements were added meeting following final concentrations of growth factors; bovine pituitary extract (BPE), 0.2% v/v·bovine insulin, 5 μg/ml·hydrocortisone, 0.18 μg/ml·bovine transferrin, 5 μg/ml·human epidermal growth factor, 0.2 ng/ml.
Keratinocytes used for Kallikrein 8 experiments were cultured as described in example 2.1. Experiments were performed in monolayers with 80% confluence. The cells were stimulated for 4 days prior to kallikrein 8 analysis with the different actives and then culture supernatant were collected and stored in −20° C. until further analysis. Kallikrein 8 production was analysed in cell culture supernatants from stimulated keratinocytes using a ELISA assay specific for Kallikrein 8 (Uscn Life Science Inc, E90690Hu). Results were compared with cell culture supernatants from DMSO vehicle treated cells. The assays utilized a 96-well microplate format and were processed according to the manufacturer's protocol, including generation of a standard curve prepared in background assay diluents. Absorbance of the assay dye was read at a Synergy HT plate reader. Values that fell within the linear range of the calibration assay were accepted. Quantities were determined by comparison to standard curves obtained for KLK8.

Data set [4] concerns Plasminogen activator (PLAT). Description: Plasminogen activator (PLAT) activation.
For data set [5], the system named is prostaglandin-endoperoxide synthase 1 (PTGS1). Briefly: Affymetrix gene array on skin explants, PTGS1. Type of data set: cell-based, human. The settings on record: topical, 24 hours.
Description: as §1, §2, §3, §4

Data set [6] concerns hydroxysteroid (17-beta) dehydrogenase 2 (HSD17B2). Briefly: Affymetrix gene array on skin explants, HSD17B2. Type of data set: cell-based, human. Conditions: topical, 24 hours.
Description: as §1, §2, §3, §4

The next data set deals with VEGF. Briefly: Inflammation induced VEGF synthesis in cultured dermal fibroblasts. Type of data set: cell-based, human. Conditions: inflammatory inducer PMA (FIG. 10). On the procedure:
(§6) MMP-inhibitory activity for compounds of the invention was also assessed on human dermal fibroblasts. Dermal fibroblasts were cultured in Dulbecco's Modified Eagle Medium (DMEM) (Invitrogen) with 10% EBS (ex. Invitrogen) and 1% Pencillin/Streptavidin (ex. Invitrogen). To induce inflammation in the cells, PMA (phorbol myristate acetate) (ex. Sigma) was used at a concentration of 10 nM. […] The cells were stimulated for 24 h and the culture supernatant was collected and stored at −20° C. until further analysis.
Fluorokine MultiAnalyte Profiling (xMAP) using the BioPlex (ex. Biorad) dual laser flow-based sorting and detection analyzers manufactured by Luminex corporation (Luminex, Austin, Tex.) was employed to measure levels of MMP in conditioned media samples of stimulated dermal fibroblasts. The technology incorporated polystyrene microspheres dyed internally with differing ratios of two spectrally distinct fluorophores to create a family of different spectrally addressed bead sets. The bead utilized in this study was conjugated with a biotinylated capture antibody specific for a unique MMPs, The assay was performed without antecedent serum depletion. Results were compared with medium from cells treated with vehicle only (DMSO). The assays utilized a 96-well microplate format and were processed according to the manufacturer's protocol, including generation of a standard curve for each target prepared in background assay diluents. Values that fell within the linear range of the calibration assay were accepted. Samples were analyzed using the Bio-Plex suspension array system and Bio-Plex Manager software 4.0 (Bio-Rad Laboratories, Hercules, Calif.). Quantities were determined by comparison to standard curves obtained for the different MMP.
Cell culture and cytokine analysis was carried out on human dermal fibroblasts as described in Example 3.1. The methodology was adapted in order analyze VEGF production.

Data set [7] concerns heparin-binding EGF-like growth factor (HBEGF). Briefly: Affymetrix gene array on skin explants, HBEGF. Type of data set: cell-based, human. The settings on record: topical, 24 hours, cut-off |log 2−ratio|>1.
Description: as §1, §2
Analysis of the gene expression data was carried out in the statistical computing language R (http://www.r-project.org) using packages available from the Bioconductor project (www.bioconductor.org). The raw data was normalized using the robust multi-array average (RMA) method. […]

The test system of data set [8] is tachykinin, precursor 1 (TAC1). Briefly: Affymetrix gene array on skin explants, TAC1. Type of data set: cell-based, human. The settings on record: topical, 24 hours.
Description: as §1, §2, §3, §4

A further data set has as its system Keratin 1/10. Briefly: Keratin 1/10 production in human normal keratinocytes. Type of data set: cell-based. Conditions: concentration not given. The procedure:
as §5
(§7) Medium was changed every other day. Cells were grown to 80% confluence prior stimulation with compounds. Experiments were performed in 24-well plates. The cells were treated with individual compounds of the invention for 6 days. After 3 days the medium was refreshed. A source of calcium ions was used as a positive control. After 6 days tissue culture medium was stored in −20° C. until analysis.
Cells were cultured as described in Example 5.1. and the methodology described in Example 3.1 was adapted in order analyze keratin 1/10 production.

The test system of the next data set is pro-collagen type 1. Description: Pro-collagen 1 ELISA in dermal fibroblasts. Type of data set: cell-based, human. The settings on record: 24 hour stimulation, 3 donors (FIG. 5). On the procedure: as §6
Fibroblast cells were cultured as outlined in Example 3.1 and treated with compounds of the invention The secretion of pro-collagen in the cell culture supernatants were analyzed using Pro-Collagen 1 specific ELISA (#8003; ex. Quidel). Results were compared with cell culture supernatants from DMSO vehicle treated cells. The assays utilized a 96-well microplate format and were processed according to the manufacturer's protocol, including generation of a standard curve prepared in background assay diluents. Absorbance of the assay dye was read at a Synergy HT plate reader. Values that fell within the linear range of the calibration assay were accepted. Quantities were determined by comparison to standard curve obtained for pro-collagen 1.
(In general: ELISA stands for enzyme-linked immunosorbent assay.)

In another data set the test system is fibronectin. Briefly: Fibronectin production in human keratinocytes. In kind it is cell-based. Conditions: 6 days stimulation, compared to all-trans retinoic acid and retinol. The procedure: as §5, §7
Experimental method as outlined in Example 3.1 was modified in order to analyze fibronectin levels extracted from keratinocytes stimulated for 6 days with all-trans retinoic acid, retinol, arachidonic acid, β-aescin, and […] (ethyl ester) at a range of concentrations. Experiments were performed in duplicates.
Cells were cultured as described in Example 5.1. and the methodology described in Example 3.1 was adapted in order analyze fibronectin production.

The conditions of data set [9]: cited from earlier work.
A further data set concerns keratin 6. Briefly: Keratin-6 production in normal human keratinocytes. Conditions: normal human keratinocytes (FIG. 11). Type of data set: cell-based.

With `CC1=C(/C=C/C(C)=C/C=C/C(C)=C/C(=O)O)C(C)(C)CCC1` [All-trans retinoic acid, all-trans retinoic acid, reference compound], the CTGF gene expression result in data set [1] (cut-off |log 2−ratio|>1) is on record as “No”; in [1] (cut-off |log 2−ratio|>1, listed as all-trans retinoic acid), “did not have any effect”. For the same molecule, the ALOX5 gene expression in data set [2] is on record as −0.69 log 2−ratio. For the same molecule, the SRD5A3 gene expression in data set [3] is on record as 0.29 log 2−ratio. For the same molecule, the “synthesis of kallikrein 8” value in the data set on Kallikrein 8 was “significant stimulation of kallikrein 8”. Moreover, the “Plasminogen activator (PLAT) activation” value in data set [4] is “activated”. Further, the PTGS1 gene expression in [5] is on record as −1.03 log 2−ratio. The HSD17B2 gene expression in [6] is listed as −0.48 log 2−ratio. Also, in the data set on VEGF, the “inflammatory induced VEGF synthesis” value is reported as “additional increase in VEGF”. In addition, the HBEGF gene expression in data set [7] is reported as 1.21 log 2−ratio. In addition, in [8], the TAC1 gene expression was −4.01 log 2−ratio.

For `CCCCC/C=C\C/C=C\C/C=C\C/C=C\CCCC(=O)O` [Arachdonic acid, Arachidonic acid], the “production of Keratin 1/10” value in the data set with Keratin 1/10 is reported as “stimulate production of Keratin 1/10”. Besides, the “synthesis of kallikrein 8” value with Kallikrein 8 is “significant increase in the synthesis of kallikrein 8”. The “production of pro-collagen type 1” value with pro-collagen type 1 is recorded as “promote pro-collagen 1 expression”. Besides, the “fibronectin production / release” value in the data set on fibronectin is given as “higher fibronectin production than retinoic acid”. Moreover, the Log p in data set [9] was 6.98.

Regarding `CC/C=C\C/C=C\C/C=C\C/C=C\C/C=C\C/C=C\CCC(=O)OCC` [Docosahexaenoic acid (ethyl ester)], in the data set on Keratin 1/10, the “production of Keratin 1/10” value is “stimulate production of Keratin 1/10”. In addition, the “synthesis of kallikrein 8” value in the data set with Kallikrein 8 was “significant increase in the synthesis of kallikrein 8”. For the same molecule, in the data set with pro-collagen type 1, the “production of pro-collagen type 1” value is given as “convincing trend towards increasing”. The “fibronectin production / release” value in the data set with fibronectin is reported as “higher fibronectin production than retinoic acid”. In addition, the keratin-6 production entry with keratin 6 is “stimulated keratin-6 production”.

Consider `O=c1c(O)c(-c2ccc(O)c(O)c2)oc2cc(O)cc(O)c12` [Quercetin], for which the “production of Keratin 1/10” value with Keratin 1/10 is given as “stimulate production of Keratin 1/10”. For the same molecule, the “synthesis of kallikrein 8” value with Kallikrein 8 is listed as “induce production of Kallikrein 8”. Besides, the “production of pro-collagen type 1” value in the data set with pro-collagen type 1 is listed as “promote pro-collagen 1 expression”.

Turning to `O=c1cc(-c2ccc(O)cc2)oc2c([C@@H]3O[C@H](CO)[C@@H](O)[C@H](O)[C@H]3O)c(O)cc(O)c12` [Vitexin], in data set [9], the Log p is recorded as 1.5.

With `CC1=C(/C=C/C(C)=C/C=C/C(C)=C/CO)C(C)(C)CCC1` [retinol, All-trans retinol, reference compound], the “synthesis of kallikrein 8” value in the data set on Kallikrein 8 is listed as “significant stimulation of kallikrein 8”. Moreover, the “inflammatory induced VEGF synthesis” value in the data set on VEGF is “small but insignificant decrease in VEGF”.

In the case of β-aescin [Beta Aescin], in the data set with Keratin 1/10, the “production of Keratin 1/10” value was “stimulate production of Keratin 1/10”. The “synthesis of kallikrein 8” value in the data set with Kallikrein 8 is reported as “induce production of Kallikrein 8”. In the data set on pro-collagen type 1, the “production of pro-collagen type 1” value is on record as “convincing trend towards increasing”. Also, the “fibronectin production / release” value in the data set on fibronectin is recorded as “higher fibronectin production than retinoic acid”. The “inflammatory induced VEGF synthesis” value in the data set on VEGF was “decreased VEGF expression, although insignificant”.
